“Also recorded” adds a separate entry of the source.
Tests used:
[1] = system: 45 CNS-related receptors; assay: CNS adverse drug reaction screening panel (CEREP); type: binding; conditions: including cannabinoid receptors
Description: CB1 and CB2 receptor binding assays [^35S]GTPγS assays were performed as previously described. WOBE437 was profiled in more detail in an extended CNS adverse drug reaction screening panel (CEREP).

[2] = target: fatty acid binding protein 5 (FABP5) (Homo sapiens, UniProt Q01469); assay: FABP5 binding
[3] = system: C57BL6/J mice; assay: LC-MS/MS quantification of endocannabinoids, lipids and corticosterone after i.p. injection; type: in vivo, mouse
Description: (§1) In order to investigate whether there was a link between the in vivo pharmacological effects of WOBE437 and the inhibition of EC uptake in vitro, the levels of WOBE437, AEA, 2-AG and related lipids in different tissues were quantified by LC-MS/MS. […] The Cbrain/Cplasma ratio (Kp) of WOBE437 was 0.65 after 5 min, 1.64 after 15 min and reached 1.9 after 30 and 60 min (FIGS. 4A and 4E). The peak concentration of WOBE437 in the brain was 780±267 nM, thus being in line with the bioactive concentrations determined in cellular assays. […] Only at 15 min post-injection, WOBE437 prevented the moderate increase of 2-AG induced by DMSO (FIG. 4C). […] On the contrary, 2-AG levels increased 1.7-fold compared to vehicle at 1 h post-injection (FIG. 4G). […] Repeated administrations of WOBE437 led to a significant 3-fold increase of corticosterone in the brain, which mirrors the changes observed in plasma (FIG. 4H). In peripheral organs, WOBE437 reached peak concentrations of 5-20 nmol/g tissue, without any signs of accumulation over 7 days. […] However, EC concentrations were not affected by repeated administrations of WOBE437 in peripheral tissues. Again, corticosterone levels were increased in spleen, liver and kidney.
(§2) WOBE437, AEA, 2-AG, other lipids and hormones were quantified by LC-MS/MS in different biological matrices (cells, human whole blood, rodent tissues) as reported in Chicca 2017.

[4] = system: C57BL6/N mice; assay: Elevated plus maze (EPM); type: in vivo, mouse; conditions: 3 mg/kg
Description: WOBE437 was initially assessed in a battery of four individual tests typically associated with CB1 receptor activation in mice (nociception, locomotion, body temperature and cataleptic behavior), collectively referred to as the “tetrad”. Dose-response experiments identified 10 mg/kg as the lowest dose to elicit a moderate but complete tetrad in BALB/c mice upon intraperitoneal (i.p.) administration (FIGS. 3A-D). […] To assess whether the WOBE437-induced effects were CB1 receptor-mediated, mice were pre-treated with the selective antagonist/inverse agonist rimonabant (SR1). […] These experiments provided a proof-of-concept for the mechanism of action of WOBE437 as a novel “indirect CB1 receptor agonist”. In subsequent studies, the effects of WOBE437 in pain, inflammatory and anxiety models were investigated. […] Both effects were reversed by SR1.
WOBE437 and RX-055 were tested in independent laboratories, in different mouse strains and in multiple (behavioral) models for cannabimimetic, analgesic, anti-inflammatory and anxiolytic-effects in wild-type and phenotypical CB1-KO mice as described in Chicca 2017.

[5] = system: AEA uptake in Neuro2a mouse neuroblastoma cells; assay: AEA uptake inhibition in Neuro2a cells; type: cell-based
Description: (§3) All radioactivity-based AEA and 2-AG uptake and release assays performed in U937, and HMC-1 cells were carried out using two different assay formats as previously reported. AEA and 2-AG uptake assay in Neuro2a and primary mouse cortical neurons were performed with a different method disclosed in Chicca 2017.

[6] = Hot plate test after oral administration; type: in vivo, mouse; conditions: male, BALB/c, mouse, in vivo; from effective doses 50 mg/kg p.o. vs 10 mg/kg i.p.; read-out: overall bioavailability compared to the i.p. administration route
Description: Acute pain was evaluated 1 h after gavage administration of WOBE437, at 10, 25, 50 and 100 mg/kg in BALB/c mice. The test was performed using a clean 54-56° C. hot plate (Thermo Scientific, USA) with a Plexiglas cylinder. The latency to show the first nociceptive response (paw lick or foot shake) was measured. In order to evaluate CB1 receptor antagonism, 5 mg/kg of rimonabant (Pharmasery AG, Switzerland) was injected intraperitoneally (i.p.) (20 μL, in DMSO) 30 min before WOBE437 administration.

[7] = target: COX-2 (Homo sapiens, UniProt P35354); assay: COX-2 activity assay; type: biochemical
Description: FAAH, ABHDs, MAGL and COX-2 activity assays were performed using cell homogenates, human recombinant enzymes and mouse, rat and pig brain homogenates as previously described.

[8] = LC-MS/MS quantification of WOBE437 in tissues after i.p. injection; type: in vivo, mouse; parameters: highest concentration in brain: unit not given here
Description: as §1, §2

[9] = system: major serine hydrolases; assay: Serine hydrolase activity in vivo; conditions: mouse
[10] = system: AEA uptake in HMC-1 human mast cells; assay: AEA uptake inhibition in FAAH-deficient HMC-1 cells; type: cell-based
Description: as §3

[11] = 7 days of daily treatment, 10 mg/kg i.p.

Chain of COX-2 (P35354 18-604): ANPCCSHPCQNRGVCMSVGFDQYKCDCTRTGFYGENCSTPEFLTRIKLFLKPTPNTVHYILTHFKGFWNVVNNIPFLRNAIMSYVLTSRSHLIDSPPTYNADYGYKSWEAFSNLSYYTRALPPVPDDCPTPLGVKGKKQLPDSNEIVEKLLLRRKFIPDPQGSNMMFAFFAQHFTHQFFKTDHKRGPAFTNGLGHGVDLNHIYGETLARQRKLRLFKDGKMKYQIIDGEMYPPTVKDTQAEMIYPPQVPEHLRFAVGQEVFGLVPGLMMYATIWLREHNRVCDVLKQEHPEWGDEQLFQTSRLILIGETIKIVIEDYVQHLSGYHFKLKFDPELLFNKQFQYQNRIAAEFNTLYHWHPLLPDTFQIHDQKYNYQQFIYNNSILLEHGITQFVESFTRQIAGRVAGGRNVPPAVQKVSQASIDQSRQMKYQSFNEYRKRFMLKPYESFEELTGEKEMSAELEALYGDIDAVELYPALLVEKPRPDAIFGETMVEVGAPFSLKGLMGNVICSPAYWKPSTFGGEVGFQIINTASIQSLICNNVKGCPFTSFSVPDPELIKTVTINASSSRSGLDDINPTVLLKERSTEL
Chain of fatty acid binding protein 5 (FABP5) (Q01469 whole entry, species assumed): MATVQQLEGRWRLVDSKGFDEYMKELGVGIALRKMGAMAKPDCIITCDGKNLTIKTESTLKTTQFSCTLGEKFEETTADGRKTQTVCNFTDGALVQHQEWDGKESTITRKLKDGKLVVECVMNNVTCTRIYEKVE

SMILES: CCCCCCC/C=C/C=C/C(=O)NCCc1ccc(OC)c(OC)c1 [WOBE437, (2E,4E)-N-[2-(3,4-Dimethoxyphenyl)ethyl]dodeca-2,4-dienamide]
- melting point: 112 °C
- interaction with 45 CNS-related receptors [1]: did not exhibit any significant interaction
- binding to FABP5 [2]: no binding
- brain 2-AG level increase compared to vehicle (DMSO) [3, 11]: 1.5 fold
- brain AEA level increase compared to vehicle (DMSO) [3, 11]: 1.5 fold
- circulating concentration of corticosterone ([3]; after 7 days): doubled
- concentrations of other lipids (NAEs, AA, prostaglandins and progesterone) ([3]; brain, plasma and peripheral organs): not significantly altered
- increase of corticosterone levels in brain, plasma and peripheral organs ([3]; repeated administration): 2-4 fold
- increase of corticosterone in the brain ([3]; repeated administrations): 3 fold
- EC concentrations in peripheral tissues ([3]; repeated administrations, 10 mg/kg): not affected; also recorded: did not significantly alter
- AEA and 2-AG levels in plasma ([3]; single and repeated injection(s)): not significantly affected
- 2-AG levels in peripheral organs ([3]; single injection): not altered in the spleen, but dropped significantly after 60-360 min in liver and kidney
- AEA level in peripheral organs ([3]; single injection): did not change in liver, whereas in kidney and spleen it moderately diminished
- brain AEA levels compared to basal level ([3]; single injection): did not change
- brain 2-AG level increase compared to vehicle ([3]; single injection 10 mg/kg i.p., 1 h post-injection): 1.7 fold
- anxiolytic effect after SR1 [4]: completely blocked by SR1
- number of entries and time spent in open arms ([4]; vs vehicle): significantly increased
- Hill slope, AEA uptake ([5]; Neuro2a cells): −0.705
- inhibition at 1 µM ([5]; mouse/rat NG108-15, N2a, 2-10 min of incubation): 35%
- inhibition at 1 µM ([5]; mouse/rat NG108-15, N2a, 15-20 min of incubation): 20%
- IC50 ([5]; mouse/rat NG108-15, N2a, Neuro2a cells): 0.055 ± 0.018 µM
- bioavailability [6]: 20%
- inhibition of COX-2 activity [7]: did not inhibit
- peak concentration in the brain ([8]; 10 mg/kg i.p.): 780 ± 267 nM
- peak concentrations in peripheral organs ([8]; 10 mg/kg i.p.): 5-20 nmol/g tissue
- peak plasma concentration ([8]; 10 mg/kg i.p.): 492±103
- time of highest brain concentration ([8]; 10 mg/kg i.p.): 30 min
- time of peak plasma concentration ([8]; 10 mg/kg i.p.): 15 min
- brain concentration ([8]; 10 mg/kg i.p., 1 h): 652±165 pmol/g brain
- Cbrain/Cplasma ratio (Kp) ([8]; 10 mg/kg i.p., after 15 min): > 1
- highest concentration in brain ([8]; 10 mg/kg i.p., after 30 min): 919±314
- concentration at 1 h ([8]; mouse, brain, ip, 1 h after a single injection, 10 mg/kg i.p., read-out: estimated brain concentration): 0.555 µM
- concentration at 7 days ([8]; mouse, brain, ip, after 7 days of treatment, 10 mg/kg i.p. daily, read-out: estimated brain concentration): 0.926 µM
- Kp at 1 h ([8]; mouse, brain/plasma, ip, 10 mg/kg, 10 mg/kg i.p., after 30 and 60 min, read-out: Cbrain/Cplasma ratio (Kp)): 1.9
- Kp at 5 min ([8]; mouse, brain/plasma, ip, 10 mg/kg, 10 mg/kg i.p., after 5 min, read-out: Cbrain/Cplasma ratio (Kp)): 0.65
- Kp at 0.25 h ([8]; mouse, brain/plasma, ip, 10 mg/kg, 10 mg/kg i.p., after 15 min, read-out: Cbrain/Cplasma ratio (Kp)): 1.64
- half-life ([8]; mouse, plasma, ip, 10 mg/kg i.p.): 3.38 h
- inhibition of major serine hydrolases in vivo [9]: did not inhibit
- IC50 ([10]; HMC1, FAAH-deficient HMC-1 human mast cells, estimated): ~0.137 µM
- Hill slope, AEA uptake ([10]; HMC-1 cells): −0.934
